Consider eight compounds from ChEMBL document CHEMBL1772937, “Fingolimod (FTY720): a recently approved multiple sclerosis drug based on a fungal secondary metabolite” (J Nat Prod, 2011).

Calls of active or inactive are those of the source. The calls are words filed in the database; no cut-off is given here.

In data set [1] the test system is Rattus norvegicus. Kind of data set: Toxicity in ip dosed F344 rat lateral thorax transplanted with dorsal skin of LEW rat assessed as concentration required for cause death. The format is organism-based. The conditions noted are these: in vivo.
Another data set relates to spleen. Kind of data set: Inhibition of serine palmitoyltransferase in mouse spleen cells. In kind it is cell-based.
For data set [2], the system named is Rattus norvegicus. In words: Immunosuppressive activity in F344 rat lateral thorax transplanted with dorsal skin of LEW rat assessed as increase of skin graft survival time at 1 mg/kg, ip. The format is functional. The conditions noted are these: route intraperitoneal.
Data set [3] deals with Rattus norvegicus. In words: Immunosuppressive activity in F344 rat lateral thorax transplanted with dorsal skin of LEW rat assessed as increase of skin graft survival time at 3 mg/kg, ip. The format is functional. The conditions noted are these: route intraperitoneal.
The subject of a further data set is LNCAP-AI. Kind of data set: (§1) Antiproliferative activity human LNCAP-AI cells assessed as growth inhibition after 78 hrs by WST-1 assay. The format is functional, cell-based.
For another data set, the system named is MCF7. Kind of data set: Antiproliferative activity against human MCF7 cells assessed as growth inhibition after 78 hrs by WST-1 assay. In kind it is functional, cell-based.
A further data set relates to SK-BR-3. Kind of data set: Antiproliferative activity against human SK-BR-3 cells assessed as growth inhibition after 78 hrs by WST-1 assay. The format is functional, cell-based.
Another data set deals with HCT-116. In words: Antiproliferative activity against human HCT116 cells assessed as growth inhibition after 78 hrs by WST-1 assay. In kind it is functional, cell-based.
The test system of a further data set is SW-620. In words: Antiproliferative activity against human SW620 cells assessed as growth inhibition after 78 hrs by WST-1 assay. In kind it is functional, cell-based.
In another data set the test system is MDA-MB-231. In words: Antiproliferative activity against human MDA-MB-231 cells assessed as growth inhibition after 78 hrs by WST-1 assay. The format is functional, cell-based.
Data set [4] is described as follows: Immunosuppressive activity in BALB/c/C57BL/6 mouse T cells assessed as inhibition of alloantigen-induced cell proliferation after 96 hrs by measuring [3H]thymidine uptake by mixed lymphocyte reaction assay. In kind it is functional, cell-based. The conditions noted are these: BALB/c/C57BL/6, T-cell.
A short description of data set [5]: as §1. The format is functional, cell-based.
Another data set has as its system MGC-803. Kind of data set: Antitumor activity against human MGC803 cells xenografted in nude mouse assessed as inhibition of tumor growth at 10 mg/kg for 20 days. Further details: dose 10 mg/kg. In kind it is functional, organism-based.
Another data set has as its system Mus musculus. Kind of data set: Toxicity in human MGC803 cells xenografted nude mouse at 10 mg/kg for 20 days. Conditions: in vivo, 480 h. The format is organism-based, MGC-803. Further details: dose 10 mg/kg.
The subject of data set [6] is Rattus norvegicus. In words: Immunosuppressive activity in rat assessed as increase of skin graft survival time at 0.1 mg/kg. The format is functional.

In the case of `CCCCCCCCCCCCCCCCCCC(N)(CO)CO`, the Activity with Rattus norvegicus [1] is 10 mg/kg.

For `CCCCCCCCCCCCCCC(N)(CO)CO`, the inhibition entry in the data set with spleen was “inactive”. Besides, the Time with Rattus norvegicus [2] stood at 37.3 days; in the data set with Rattus norvegicus [3] it was 45.5 days. Moreover, the Activity in the data set on Rattus norvegicus [1] was 10 mg/kg.

Turning to `CCCCCCC(O)CCCCCCCCC[C@@H](O)[C@H](O)C(N)(CO)CO` (stereo partly drawn), the Time in the data set on Rattus norvegicus [2] was 9.2 days; in the data set with Rattus norvegicus [3], 11 days. For the same compound, in the data set with Rattus norvegicus [1], the Activity came out at 100 mg/kg.

For the compound `CCCCCCCCc1ccc(CC[C@](N)(/C=C/P(=O)(O)O)CO)cc1`, the “growth inhibition (GI)” value in the data set with LNCAP-AI and in the data set on MCF7 was “inactive” in each case.

With `CCCCCCCCc1ccc(CC[C@](N)(CO)COP(=O)(O)O)cc1`, the “growth inhibition (GI)” value in the data set on SK-BR-3, with HCT-116, in the data set with SW-620, in the data set with MDA-MB-231 and in the data set on MCF7 was “inactive” each time.

With `C/C=C/C[C@@H](C)[C@@H](O)[C@H]1C(=O)N[C@@H](CC)C(=O)N(C)CC(=O)N(C)[C@@H](CC(C)C)C(=O)N[C@@H](C(C)C)C(=O)N(C)[C@@H](CC(C)C)C(=O)N[C@@H](C)C(=O)N[C@H](C)C(=O)N(C)[C@@H](CC(C)C)C(=O)N(C)[C@@H](CC(C)C)C(=O)N(C)[C@@H](C(C)C)C(=O)N1C` [CYCLOSPORINE], the Time was 7.3 days in the data set on Rattus norvegicus [2] and 10.8 days in the data set on Rattus norvegicus [3].

With `CCCCCCCCc1ccc(CCC(N)(CO)CO)cc1` [FINGOLIMOD], the IC50 in the data set on SK-BR-3 (SK-BR-3, 78 h) came out at 5 µM; with HCT-116 (HCT-116, 78 h), 5 µM; in the data set on SW-620 (SW-620, 78 h), 5 µM; in data set [4], 0.0061 µM; in [5], 5 µM; in the data set with MDA-MB-231 (MDA-MB-231, 78 h), 5 µM. Besides, the IC50 in the data set with MCF7 (MCF7, 78 h) is 5 µM. Besides, in the data set on spleen, the inhibition result is “inactive”. The results for the Time in the data set with Rattus norvegicus [2] and with Rattus norvegicus [3] were 39.5 days and 52 days, respectively. In addition, the “growth inhibition (GI)” value in the data set with MGC-803 is “Active”. Besides, the Activity result in the data set on Mus musculus is recorded as “Toxic”.

With `CCCCCCC(=O)CCCCCC/C=C/C[C@@H](O)[C@H](O)[C@@](N)(CO)C(=O)O` [MYRIOCIN], the IC50 in data set [4] came to 0.003 µM. For the same compound, the inhibition entry in the data set with spleen is “Active”. Besides, the Activity with Rattus norvegicus [1] turned out to be 1 mg/kg. Further, the Time in the data set with Rattus norvegicus [6] came to 2 days.
